The values that follow are results of earlier work, collected in patent publication US11938222B2, “Pregabalin sustained release composition and method for preparing the same” (priority 2018, dated 2024).

Structures are written as SMILES.

The conditions of this series: gastrointestinal tract, humans.

For the compound `CC(C)C[C@H](CN)CC(=O)O` [pregabalin, (S)-3-aminomethyl-5-methylhexanoic acid], the average absorption window was at most 6 h.
